Earlier results as cited in US8071772B2, “Spirolactam bicyclic CGRP receptor antagonists” (Merck Sharp & Dohme Corp., priority 2005, dated 2011).
No end group written: not given here.

Tests used:
facial blood flow [1] = settings: marmoset; Doods et al. 2000
[2] = tested on: diameter of the middle meningeal artery; settings: rat, prior administration; Williamson et al. 1997
facial blood flow [3] = settings: rat; Escott et al. 1995

NCCCC[C@H](NC(=O)[C@@H](Cc1cc(Br)c(O)c(Br)c1)NC(=O)N1CCC(N2Cc3ccccc3NC2=O)CC1)C(=O)N1CCN(c2ccncc2)CC1 [BIBN4096BS]
effect on increase in facial blood flow (facial blood flow [1]): blocked

CGRP(8-37): a peptide CGRP antagonist; fragment of CGRP that lacks seven N-terminal amino acid residues (VTHRLAGLLSRSGGVVKNNFVPTNVGSKAF; ends and bridges not checked; UniProt P06881 90-119, looked up, fragment)
effect on increase of middle meningeal artery diameter [2]: blocked | effect on increased facial blood flow (facial blood flow [3]): inhibited
